Measurements from US7507739B2, “6-[(substituted)phenyl]triazolopyrimidines as anticancer agents” (Wyeth, priority 2003, dated 2009).
Values belong to the compound of their own block, whether it stands above or below them.

What was measured:
COLO 205 cells = assay: MTS cytotoxicity test with COLO 205 cells; type: cell-based, human; conditions: 3 days
Summary of the method: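 COLO 205 human colon carcinoma cells, 1000 per well, exposed 3 days at 37° C to nine 2-fold dilutions, typical final top concentration 5 μM. MTS absorbance normalized to time-0 plate; IC50 is concentration giving colour yield midway between untreated and fully killed controls.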

MAP-rich tubulin = assay: Tubulin polymerization test with MAP-rich tubulin; type: biochemical, bovine; conditions: 0.3 μM compound, 20 min, fold enhancement over control
Procedure: (§1) Medium is RPMI-1640 with L-glutamine, supplemented with 10% heat-inactivated fetal calf serum, 100 units/ml penicillin, and 100 μg/ml streptomycin (Gibco, Grand Island, N.Y.). Microtubule-associated protein (MAP)-rich tubulin, containing about 70% tubulin and 30% MAPs (#ML113), and highly purified tubulin (>99% pure, #TL238), both from bovine brain, are obtained from Cytoskeleton, Inc., Denver, Colo. PEM buffer (80 mM piperazine-N,N′-bis[2-ethanesulfonic acid], pH 6.9, 1 mM ethylene glycol-bis(β-aminoethyl ether)-N,N,N′,N′-tetraacetic acid, 1 mM magnesium chloride) and guanosine 5′-triphosphate (GTP) are also obtained from Cytoskeleton. [3H]paclitaxel, specific activity 14.7 Ci/mmol, is purchased from Moravek Biochemicals (Brea, Calif.). [^3H]vinblastine, specific activity 9.60 Ci/mmol and MicroSpin G-50 columns are obtained from Amersham Biosciences (Piscataway, N.J.). […] Other reagents are obtained from Sigma (St. Louis, Mo.).
(§2) Two variations of this procedure are done, one using MAP-rich tubulin and one using pure tubulin.
MAP-rich tubulin is dissolved in ice-cold PEM buffer containing 1 mM GTP (GPEM buffer) at a concentration of 1.3 mg/mL. The solution is centrifuged at top speed in an Eppendorf model 5415C microcentrifuge (Brinkmann Instruments, Westbury, N.Y.) for 10 min at […] immediately before use. The tubulin solution is added to wells of a ½-area 96-well plate (Costar No. 3696, Corning, Inc., Corning, N.Y.) already containing the compounds of interest. Each compound is tested in duplicate at a final concentration of 0.3 μM in a volume of 110 μL per well. The final DMSO concentration in all wells is 0.3%. Control reactions, which received compound solvent only, are done in quadruplicate. The plate is put in a SpectraMax Plus plate reader (Molecular Devices Corp. Sunnyvale, Calif.) thermostated at 24° and the absorbance of each well at 340 nm, a measure of the appearance of turbidity due to tubulin polymer formation, is determined every minute for 60 minutes. The absorbance at time 0 for each well is subtracted from each of the subsequent absorbance readings for that well, and then the duplicates are averaged.
In this assay, control reactions with MAP-rich tubulin show an S-shaped absorbance profile characterized by three phases: first, a lag phase during which no change in absorbance occurs; second, a polymerization phase in which absorbance increases; and third, a plateau phase in which absorbance has reached a maximum and little or no further change occurs. Polymerization enhancers such as paclitaxel and docetaxel shorten or eliminate the lag phase, increase the rate of the polymerization phase, and often increase the height of the plateau. […] The compounds of this invention have a taxane-like effect on the polymerization reaction. This has been expressed quantitatively in Table 5 by dividing the mean A340 of each sample at 20 min by the mean A340 of the control at 20 min to give a fold enhancement over control. […] Examples of this invention have factors ranging up to 8.1, with the majority in the 5 to 6-fold range.

pure tubulin = assay: Tubulin polymerization test with pure tubulin without GTP; type: biochemical, bovine; conditions: no GTP
Procedure: as §1, §2
The procedure with pure tubulin is similar except for the following changes. […] The supernatant after centrifugation is dispensed to a 96-well plate already containing compounds. Each compound is tested in duplicate at six serial 3-fold dilutions starting at 24.3 μM. The plate reader is thermostated at 35°.

tubulin heterodimer [1] = assay: Competitive binding test, [3H]vinblastine; set-up: species or system bovine; conditions: [3H]vinblastine 100 nM
Procedure: as §1
(§3) The binding of examples of this invention to highly purified tubulin is studied by competitive inhibition methods. […] To study possible competition at the taxane site, on the other hand, polymerized tubulin (microtubules) is used because paclitaxel binds preferentially to microtubules.
(§4) Highly purified tubulin is dissolved in PEM buffer without GTP and used at a final concentration of 1.0 to 1.3 mg/ml (10 to 13 μM). […] These solutions are incubated at 24° for 1 hr and then applied to MicroSpin G-50 columns which are centrifuged for 2 min at 3000 rpm in an Eppendorf 5415C microfuge. An aliquot of each column effluent (containing tubulin and bound radioligand) is mixed with scintillation fluid and counted in a liquid scintillation spectrometer. […] The ability of the competitor to inhibit the binding of the radioligand is expressed as a percentage of control binding in the absence of any competitor.

tubulin heterodimer [2] = assay: Competitive binding test, [3H]colchicine; set-up: species or system bovine; conditions: [3H]colchicine 50 nM
Procedure: as §1, §3, §4

microtubules = assay: Competitive binding test, [3H]paclitaxel; set-up: species or system bovine; conditions: [3H]paclitaxel 2.1 μM, competitor 20 μM (5 μM for unlabeled paclitaxel)
Procedure: as §1, §3
For competition with [^3H]paclitaxel, highly purified tubulin is dissolved in PEM buffer containing 0.75 M glutamate and 25 μM dideoxy-GTP; final protein concentration is 0.25 to 0.35 mg/mL (2.5 to 3.5 μM). These conditions foster the rapid formation of short, stable microtubule polymers (Hamel, E., del Campo, A. A., and Lin, C. M. Stability of tubulin polymers formed with dideoxyguanosine nucleotides in the presence and absence of microtubule-associated proteins. J. Biol. Chem., 259: 2501-2508, 1984). This solution is incubated for 30 min at 37° to allow microtubules to form. Then [^3H]paclitaxel (final concentration of 2.1 μM, 1.2 Ci/mmol) and competitor (final concentration of 20 μM, except 5 μM for unlabeled paclitaxel) are added to aliquots of the polymerized tubulin solution and incubation at 37° is continued for another 30 min. […] The reactions are then centrifuged at top speed in an Eppendorf 5415C microfuge for 20 min at room temperature in order to pellet the microtubule protein. Triplicate aliquots of each supernatant are mixed with scintillation fluid and counted in a liquid scintillation spectrometer. From the amount of radioactivity in the supernatants and the measured total starting radioactivity, the amount of [^3H]paclitaxel bound to pelleted microtubule protein is calculated. The ability of each competitor to inhibit radioligand binding to pelleted protein is expressed as a percent of controls without any competitor.

KB cells = assay: MTS cytotoxicity test with KB cells; type: cell-based; conditions: Homo sapiens; KB cells, MTS; read-out: IC50 KB
Source text: (§5) Human cancer cell lines, unless otherwise noted, are obtained from the American Type Culture Collection (Rockville, Md.). The following drug-sensitive parental cell lines, and their derived drug-resistant counterparts, are obtained from the originators as listed: (a) S1 (parental line from a subclone of human colon carcinoma line LS174T) and derived S1-M1-3.2 (herein called S1-M1) which expresses the MXR drug transporter protein, are provided by Dr. L. Greenberger, Wyeth Research (Rabindran, S. K., He, H., Singh, M., Brown, E., Collins, K. I., Annable, T., and Greenberger, L. M. Reversal of a novel multidrug resistance mechanism in human colon carcinoma cells by fumitremorgin C. Cancer Res., 58:5850-5858,1998); (b) parental HL-60 human promyelocytic leukemia line and derived HL-60/ADR, which expresses the MRP1 drug transporter protein, are provided by Dr. M. Center, University of Kansas (McGrath, T., and Center, M. S. Adriamycin resistance in HL60 cells in the absence of detectable P-glycoprotein. Biochem. Biophys. […] J. Biol. Chem., 261: 7762-7770,1986) via Dr. L. Greenberger, Wyeth Research.
(§6) The assay, which is sold in kit form by Promega (Madison, Wis.; CellTiter 96 AQueous Non-Radioactive Cell Proliferation Assay), is based on the conversion by viable cells, but not by dead cells, of the tetrazolium salt, MTS (3-(4,5-dimethylthiazol-2-yl)-5-(3-carboxymethoxyphenyl)-2-(4-sulphophenyl)-2H-tetrazolium, inner salt), into a water-soluble colored formazan which is detected by spectrophotometry. Compounds are tested at nine concentrations, in order to determine IC50 values. For the test procedure, cells are harvested by trypsinization (or, in the case of non-adherent cells, by simple resuspension), washed, counted and distributed to wells of 96-well flat-bottom microtiter plates at 1000 cells per well in 200 μL of medium. In addition, one row of wells on a separate plate received cells as above (“time 0” plate). All plates are incubated at 37° in humidified 5% CO2 in air for about 24 hr.
(§7) On day 2, compounds for test are diluted and added to wells. Compounds are dissolved in DMSO at 10 mg/mL. For each compound, nine serial 2-fold dilutions are prepared in DMSO. Ten μL of each dilution in DMSO is transferred to 100 μL of medium, mixed well, and then 5 μL of this dilution is transferred in quadruplicate to wells containing cells. […] Plates are returned to the incubator for three days. At the time of drug addition to the experimental plates, the MTS assay is run on the “time 0” plate. This produced the “time 0 MTS value” which is related to the number of viable cells per well at the time of drug addition.
(§8) After three days of culture with test compounds (day 5 overall), the MTS assay is done on all wells of the experimental plates. The absorbance values of the quadruplicate sample wells are averaged and divided by the average of the “time 0” values. […] The nine values for each compound are plotted against concentration, and the concentration that produced a relative color yield half way between the maximum and minimum is taken as the IC50 value.
(§9) The KB lines express different amounts of the P-glycoprotein (MDR1) membrane pump which produces resistance to the action of many cytotoxic compounds, including paclitaxel and vincristine. The parental KB line expresses no P-glycoprotein, KB-8-5 expresses moderate levels of the protein, and KB-V1 expresses very high levels.

KB-8-5 cells = assay: MTS cytotoxicity test with KB-8-5 cells (moderate P-glycoprotein); type: cell-based, human
Source text: as §5, §6, §7, §8, §9

KB-V1 cells = assay: MTS cytotoxicity test with KB-V1 cells (very high P-glycoprotein); type: cell-based, human; conditions: IC50 on KB VI cells/IC50 on KB cells
Source text: as §5, §6, §7, §8, §9

HL-60 cells = assay: MTS cytotoxicity test with HL-60 cells; type: cell-based; conditions: Homo sapiens; HL-60 cells, MTS; read-out: IC50 HL-60
Source text: as §5, §6, §7, §8
(§10) HL-60/ADR cells overexpress the multidrug resistance protein MRP1 which mediates resistance to some chemotherapeutics (Gottesman, M. M., Fojo, T., and Bates, S. E. Multidrug resistance in cancer: role of ATP-dependent transporters. Nature Rev. Cancer, 2: 48-58, 2002). The IC50 values of representative examples of this invention, as well as reference compounds, on HL-60/ADR are compared to values on the sensitive parental HL-60 line.

HL-60/ADR cells = assay: MTS cytotoxicity test with HL-60/ADR cells (MRP1); type: cell-based, human; conditions: IC50 on HL-60/ADR cells/IC50 on HL-60 cells
Source text: as §5, §6, §7, §8, §10

S1 cells = assay: MTS cytotoxicity test with S1 cells; type: cell-based; conditions: Homo sapiens
Source text: as §5, §6, §7, §8
as §10, with “S1-M1” for “HL-60/ADR”, “MXR transporter” for “multidrug resistance protein MRP1”, “Miltidrug” for “Multidrug”, “S1” for “HL-60”

S1-M1 cells = assay: MTS cytotoxicity test with S1-M1 cells (MXR); type: cell-based, human; conditions: for Ratio: IC50 on S1-M1 cells/IC50 on S1 cells
Source text: as §5, §6, §7, §8
as §10, with “S1-M1” for “HL-60/ADR”, “MXR transporter” for “multidrug resistance protein MRP1”, “Miltidrug” for “Multidrug”, “S1” for “HL-60”

[3H]Vinblastine binding, percent of control without competitor, Mean (tubulin heterodimer [1]): 12%
[3H]Colchicine binding, percent of control without competitor, Mean (tubulin heterodimer [2]): 121%
[3H]Paclitaxel binding, percent of control without competitor, Mean (microtubules): 107%
Compound: C[C@H](Nc1c(-c2c(F)cc(OCCCN3CCOCC3)cc2F)c(Cl)nc2ncnn12)C(F)(F)F.Cl [Example 11a, 5-Chloro-6-[2,6-difluoro-4-(3-morpholin-4-ylpropoxy)phenyl]-N-[(1S)-2,2,2-trifluoro-1-methylethyl][1,2,4]triazolo[1,5-a]pyrimidin-7-amine Hydrogen chloride]
IC50 (COLO 205 cells): 51 nM
A340 Compound/A340 Control (MAP-rich tubulin): 6.8
absorbance increase, polymerization of pure tubulin (pure tubulin; 2.7 μM): no effect
absorbance increase, polymerization of pure tubulin (pure tubulin; 8.1 μM): lower and less rapid increase
A340 at 0 min (pure tubulin; 24.3 μM): 0
A340 at 5 min (pure tubulin; 24.3 μM): 0.24
A340 at 10 min (pure tubulin; 24.3 μM): 0.24
A340 at 15 min (pure tubulin; 24.3 μM): 0.23
A340 at 20 min (pure tubulin; 24.3 μM): 0.22
absorbance increase, polymerization of pure tubulin (pure tubulin; 24.3 μM, first 5 min): rapid increase in absorbance

Compound: O=C1c2c(O)ccc(O)c2C(=O)c2c(NCCNCCO)ccc(NCCNCCO)c21 [Mitoxantrone, reference compound]
IC50 (KB cells): 25 nM
IC50 (KB-8-5 cells; Homo sapiens, KB-8-5 cells, MTS, read-out: IC50 KB 8.5): 27 nM
Ratio 8.5/KB (KB-8-5 cells; IC50 on KB 8.5 cells/IC50 on KB cells): 1.1
Ratio VI/KB (KB-V1 cells): 77
IC50 (HL-60 cells): 9.5 nM
Ratio (HL-60/ADR cells): 17
IC50 (S1 cells): 10 nM
IC50 (S1-M1 cells; Homo sapiens, S1-M1 cells, MTS, read-out: IC50 S1-M1): > 3000 nM
Ratio (S1-M1 cells): >300
Ratio (S1-M1 cells; listed as mitoxantrone): > 300
